Structures are written as SMILES. pKi: −log10 of the molar value.

One assay concerns the target T1, Alpha-1D adrenergic receptor (Homo sapiens, UniProt P25100).
T1 sequence (P25100 whole entry): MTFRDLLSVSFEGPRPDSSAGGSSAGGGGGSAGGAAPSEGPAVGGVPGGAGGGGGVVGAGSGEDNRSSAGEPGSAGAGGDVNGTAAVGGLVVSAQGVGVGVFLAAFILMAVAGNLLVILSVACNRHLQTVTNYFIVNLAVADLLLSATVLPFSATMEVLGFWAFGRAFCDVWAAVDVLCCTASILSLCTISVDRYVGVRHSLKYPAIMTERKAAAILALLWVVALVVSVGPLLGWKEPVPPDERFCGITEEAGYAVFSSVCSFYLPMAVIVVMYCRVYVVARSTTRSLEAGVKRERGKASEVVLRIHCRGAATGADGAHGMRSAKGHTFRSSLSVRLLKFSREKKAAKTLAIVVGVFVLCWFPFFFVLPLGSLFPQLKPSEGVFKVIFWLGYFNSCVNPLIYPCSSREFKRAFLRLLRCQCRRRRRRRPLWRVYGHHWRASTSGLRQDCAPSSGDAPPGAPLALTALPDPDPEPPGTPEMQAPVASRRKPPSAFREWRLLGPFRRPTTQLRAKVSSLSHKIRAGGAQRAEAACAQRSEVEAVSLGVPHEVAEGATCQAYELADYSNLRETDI
The assay is described as follows: Binding affinity to human cloned adrenergic Alpha-1D receptor.
The term pKi denotes the negative decadic logarithm of the Ki, by convention in mol/L. With `COc1ccc(C(F)(F)F)cc1S(=O)(=O)N[C@H]1CC[C@H](N2CCN(c3ccccc3OC(C)C)CC2)CC1`, the pKi was 7.82.

Consider `CC(C)Oc1ccccc1N1CCN([C@H]2CC[C@@H](NS(=O)(=O)c3ccccc3F)CC2)CC1`, for which the pKi is 8.62. This pKi is 0.80 log units higher than that of the compound before.

In a further assay the target is D(2) dopamine receptor (Homo sapiens, UniProt P14416). Briefly: Binding affinity to human dopamine D2 receptor.
D(2) dopamine receptor, sequence (P14416 whole entry): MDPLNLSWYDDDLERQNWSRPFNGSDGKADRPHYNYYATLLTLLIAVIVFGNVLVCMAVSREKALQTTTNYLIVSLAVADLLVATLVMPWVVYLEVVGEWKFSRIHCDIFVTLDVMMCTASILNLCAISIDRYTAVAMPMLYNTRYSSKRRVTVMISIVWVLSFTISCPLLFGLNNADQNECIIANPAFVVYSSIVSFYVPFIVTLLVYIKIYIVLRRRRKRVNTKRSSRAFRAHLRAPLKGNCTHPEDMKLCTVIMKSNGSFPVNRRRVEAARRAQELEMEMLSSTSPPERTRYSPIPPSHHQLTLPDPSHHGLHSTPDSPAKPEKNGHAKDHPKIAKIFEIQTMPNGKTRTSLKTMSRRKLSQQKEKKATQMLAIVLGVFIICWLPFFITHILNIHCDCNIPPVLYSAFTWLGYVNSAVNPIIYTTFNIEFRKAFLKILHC
Turning to `CC(C)Oc1ccccc1N1CCN([C@H]2CC[C@@H](NS(=O)(=O)c3ccccc3[N+](=O)[O-])CC2)CC1`, the pKi is 7.29.

For `CC(C)Oc1ccccc1N1CCN([C@H]2CC[C@H](NS(=O)(=O)c3ccccc3[N+](=O)[O-])CC2)CC1`, the pKi is 7.07.

With `COc1ccncc1S(=O)(=O)N[C@H]1CC[C@@H](N2CCN(c3ccccc3OC(C)C)CC2)CC1`, the pKi is 7.04. This pKi and that of the compound before are within 0.2 log units of each other.

As for `CC(C)Oc1ccccc1N1CCN([C@H]2CC[C@@H](NS(=O)(=O)c3cnc(Cl)c(Br)c3)CC2)CC1`, the pKi was 7.21.

As for `CC(C)Oc1ccccc1N1CCN([C@H]2CC[C@@H](NS(=O)(=O)c3cccc(F)c3)CC2)CC1`, the pKi was 7.13.

Regarding `CC(C)Oc1ccccc1N1CCN([C@H]2CC[C@H](NS(=O)(=O)c3cccc(F)c3)CC2)CC1`, the pKi was 7.19. The pKi values of the last two compounds are within 0.2 log units of each other.

`CC(C)Oc1ccccc1N1CCN([C@H]2CC[C@@H](NS(=O)(=O)c3ccc(Cl)cc3F)CC2)CC1`: the pKi is 6.89.

Consider `CC(C)Oc1ccccc1N1CCN([C@H]2CC[C@H](NS(=O)(=O)c3cccc(C(F)(F)F)c3)CC2)CC1`, for which the pKi was 7.41.

Take `CC(C)Oc1ccccc1N1CCN([C@H]2CC[C@H](NS(=O)(=O)c3ccc(Cl)cc3F)CC2)CC1`: the pKi is 7.38.

With `CC(C)Oc1ccccc1N1CCN([C@H]2CC[C@@H](NS(=O)(=O)c3cccc(C(F)(F)F)c3)CC2)CC1`, the pKi was 6.93.

In turn, `COc1ccc(C)cc1S(=O)(=O)N[C@H]1CC[C@H](N2CCN(c3ccccc3OC(C)C)CC2)CC1` showed a pKi of 7.30.

`CC(C)Oc1ccccc1N1CCN([C@H]2CC[C@H](NS(=O)(=O)c3cnc(Cl)c(Br)c3)CC2)CC1` showed a pKi of 7.10.

Take `COc1ccc(F)cc1S(=O)(=O)N[C@H]1CC[C@@H](N2CCN(c3ccccc3OC(C)C)CC2)CC1`: the pKi was 6.76.

Compound `COc1ccc(Br)cc1S(=O)(=O)N[C@H]1CC[C@@H](N2CCN(c3ccccc3OC(C)C)CC2)CC1` gave a pKi of 7.43. Against the preceding compound, the pKi is 0.67 log units higher.

`COc1ccc(OC)c(S(=O)(=O)N[C@H]2CC[C@H](N3CCN(c4ccccc4OC(C)C)CC3)CC2)c1`: the pKi was 7.21. This pKi is 0.22 log units lower than that of the compound before.

Consider `COc1ccc(C(F)(F)F)cc1S(=O)(=O)N[C@H]1CC[C@@H](N2CCN(c3ccccc3OC(C)C)CC2)CC1`, for which the pKi was 6.71. This pKi lies 0.50 log units lower than the previous one.

In turn, `COc1ccc(C(F)(F)F)cc1S(=O)(=O)N[C@H]1CC[C@H](N2CCN(c3ccccc3OC(C)C)CC2)CC1` showed a pKi of 8.72. This pKi lies 2.01 log units higher than the previous one.

The compound `COc1ccc([N+](=O)[O-])cc1S(=O)(=O)N[C@H]1CC[C@H](N2CCN(c3ccccc3OC(C)C)CC2)CC1` showed a pKi of 7.74.

For `Cc1ccc(S(=O)(=O)N[C@H]2CC[C@@H](N3CCN(c4ccccc4OC(C)C)CC3)CC2)cc1Cl`, the pKi was 7.22.

In the case of `COc1ccc(Cl)cc1S(=O)(=O)N[C@H]1CC[C@H](N2CCN(c3ccccc3OC(C)C)CC2)CC1`, the pKi was 7.11.

`Cc1ccc(S(=O)(=O)N[C@H]2CC[C@H](N3CCN(c4ccccc4OC(C)C)CC3)CC2)cc1Cl` gave a pKi of 7.28. This pKi and that of the compound before are within 0.2 log units of each other.

On to `CC(C)Oc1ccccc1N1CCN([C@H]2CC[C@@H](NS(=O)(=O)Cc3ccccc3)CC2)CC1`, for which the pKi is 7.62.

On to `CC(C)Oc1ccccc1N1CCN([C@H]2CC[C@H](NS(=O)(=O)Cc3ccccc3)CC2)CC1`, for which the pKi is 7.15.

In turn, `CC(C)Oc1ccccc1N1CCN([C@H]2CC[C@H](NS(=O)(=O)c3ccccc3)CC2)CC1` had a pKi of 7.47.

`CC(C)Oc1ccccc1N1CCN([C@H]2CC[C@@H](NS(=O)(=O)c3ccccc3C#N)CC2)CC1` gave a pKi of 7.26.

Take `CC(C)Oc1ccccc1N1CCN([C@H]2CC[C@H](NS(=O)(=O)c3ccccc3C#N)CC2)CC1`: the pKi was 8.62. Against the preceding compound, the pKi is 1.36 log units higher.

The compound `CC(C)Oc1ccccc1N1CCN([C@H]2CC[C@H](NS(=O)(=O)c3ccccc3F)CC2)CC1` had a pKi of 7.51.

`CC(C)Oc1ccccc1N1CCN([C@H]2CC[C@@H](NS(=O)(=O)c3cccnc3)CC2)CC1` had a pKi of 7.82.

`CC(C)Oc1ccccc1N1CCN([C@H]2CC[C@@H](NS(=O)(=O)c3ccc(F)cc3)CC2)CC1` showed a pKi of 7.16.

On to `CC(C)Oc1ccccc1N1CCN([C@H]2CC[C@@H](NS(=O)(=O)c3ccc(S(C)(=O)=O)cc3)CC2)CC1`, for which the pKi is 6.91.

Turning to `CC(C)Oc1ccccc1N1CCN([C@H]2CC[C@H](NS(=O)(=O)c3ccc(S(C)(=O)=O)cc3)CC2)CC1`, the pKi was 7.85.

Take `COc1ccc(S(=O)(=O)N[C@H]2CC[C@H](N3CCN(c4ccccc4OC(C)C)CC3)CC2)cc1OC`: the pKi is 7.21.

For the compound `CC(C)Oc1ccccc1N1CCN([C@H]2CC[C@@H](NS(=O)(=O)c3ccc(OC(F)(F)F)cc3)CC2)CC1`, the pKi was 6.37.

The compound `CC(C)Oc1ccccc1N1CCN([C@H]2CC[C@H](NS(=O)(=O)c3cccnc3)CC2)CC1` had a pKi of 7.26.

In turn, `COc1ccncc1S(=O)(=O)N[C@H]1CC[C@H](N2CCN(c3ccccc3OC(C)C)CC2)CC1` gave a pKi of 7.37.

Turning to `CC(C)Oc1ccccc1N1CCN([C@H]2CC[C@@H](NS(=O)(=O)c3ccc(Cl)cc3Cl)CC2)CC1`, the pKi was 7.38. The pKi values of the last two compounds are within 0.2 log units of each other.

With `CC(C)Oc1ccccc1N1CCN([C@H]2CC[C@@H](NS(=O)(=O)c3ccccc3)CC2)CC1`, the pKi was 6.72.

`COc1ccc(F)cc1S(=O)(=O)N[C@H]1CC[C@H](N2CCN(c3ccccc3OC(C)C)CC2)CC1`: the pKi was 6.86. The pKi values of the last two compounds are within 0.2 log units of each other.

In turn, `CC(C)Oc1ccccc1N1CCN([C@H]2CC[C@H](NS(=O)(=O)c3ccc(OC(F)(F)F)cc3)CC2)CC1` had a pKi of 7.24.

On to `CC(C)Oc1ccccc1N1CCN([C@H]2CC[C@H](NS(=O)(=O)c3ccc(Cl)cc3Cl)CC2)CC1`, for which the pKi is 7.12. This pKi and that of the compound before are within 0.2 log units of each other.

Compound `CC(C)Oc1ccccc1N1CCN([C@H]2CC[C@H](NS(=O)(=O)c3cccc(Cl)c3F)CC2)CC1` gave a pKi of 6.57. Compared with the last compound, the pKi is 0.55 log units lower.

With `CC(C)Oc1ccccc1N1CCN([C@H]2CC[C@@H](NS(=O)(=O)c3ccccc3F)CC2)CC1`, the pKi is 6.83. This pKi is 0.26 log units higher than that of the compound before.

Compound `CC(C)Oc1ccccc1N1CCN([C@H]2CC[C@H](NS(=O)(=O)c3ccc(F)cc3)CC2)CC1` showed a pKi of 7.57. Compared with the last compound, the pKi is 0.74 log units higher.

`COc1ccc(Br)cc1S(=O)(=O)N[C@H]1CC[C@H](N2CCN(c3ccccc3OC(C)C)CC2)CC1` had a pKi of 7.44.

As for `COc1ccc([N+](=O)[O-])cc1S(=O)(=O)N[C@H]1CC[C@@H](N2CCN(c3ccccc3OC(C)C)CC2)CC1`, the pKi was 7.35.

`COc1ccc(Cl)cc1S(=O)(=O)N[C@H]1CC[C@@H](N2CCN(c3ccccc3OC(C)C)CC2)CC1` (stereo in doubt; form 1) gave a pKi of 7.00.

Regarding `COc1ccc(S(=O)(=O)N[C@H]2CC[C@@H](N3CCN(c4ccccc4OC(C)C)CC3)CC2)cc1OC` (stereo in doubt; form 1), the pKi is 7.03. The pKi values of the last two compounds are within 0.2 log units of each other.

Another assay has as its target T2, Alpha-1A adrenergic receptor (Homo sapiens, UniProt P35348).
T2 sequence (P35348 whole entry): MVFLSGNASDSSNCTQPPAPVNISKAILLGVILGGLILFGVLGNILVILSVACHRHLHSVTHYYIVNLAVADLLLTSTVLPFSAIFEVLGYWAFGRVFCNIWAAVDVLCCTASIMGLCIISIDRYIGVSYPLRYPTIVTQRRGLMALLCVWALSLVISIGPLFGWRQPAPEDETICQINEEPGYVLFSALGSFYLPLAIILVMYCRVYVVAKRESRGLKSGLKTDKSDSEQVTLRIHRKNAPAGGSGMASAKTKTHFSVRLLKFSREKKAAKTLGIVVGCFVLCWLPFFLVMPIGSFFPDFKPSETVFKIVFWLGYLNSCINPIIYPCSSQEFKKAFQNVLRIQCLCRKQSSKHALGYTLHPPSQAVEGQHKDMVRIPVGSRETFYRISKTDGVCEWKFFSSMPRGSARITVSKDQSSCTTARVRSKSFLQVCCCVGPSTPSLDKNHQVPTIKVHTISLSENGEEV
The assay is described as follows: Binding affinity to human cloned adrenergic alpha-1A receptor.
As for `COc1ccc(C(F)(F)F)cc1S(=O)(=O)N[C@H]1CC[C@H](N2CCN(c3ccccc3OC(C)C)CC2)CC1`, the pKi was 7.60.

The compound `Cc1ccc(S(=O)(=O)N[C@H]2CC[C@@H](N3CCN(c4ccccc4OC(C)C)CC3)CC2)cc1Cl` had a pKi of 7.96.

With `CC(C)Oc1ccccc1N1CCN([C@H]2CC[C@@H](NS(=O)(=O)c3ccc(OC(F)(F)F)cc3)CC2)CC1`, the pKi was 7.77. This pKi and that of the compound before are within 0.2 log units of each other.

As for `COc1ccc(Cl)cc1S(=O)(=O)N[C@H]1CC[C@@H](N2CCN(c3ccccc3OC(C)C)CC2)CC1` (stereo in doubt; form 1), the pKi is 9.00. This pKi is 1.23 log units higher than that of the compound before.

The values above are taken from ChEMBL document CHEMBL1148021, “(Arylpiperazinyl)cyclohexylsufonamides: discovery of alpha(1a/1d)-selective adrenergic receptor antagonists for the treatment of Benign Prostatic Hyperplasia/Lower Urinary Tract Symptoms (BPH/LUTS)” (Bioorg Med Chem Lett, 2007).
